Data as given in the supplement of paper PMC11061612.

Experiments:
Assay in all cases: Bliss excess, mean over the matrix (fraction); higher = more synergy
EW-11 (Ewing's Sarcoma) = system: EW-11 (Ewing's Sarcoma)
Method in brief: (§1)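 Cell lines in DMEM/F12 or RPMI with 10% FBS were plated in 1536-well plates, held 24 hours at 37°C, 5% CO2, then given two-drug dose matrices for 72 hours (DMSO typically 0.2%). Viability was read by CellTiter-Glo 2.0 luminescence and scaled as inhibition from 0 (vehicle wells) to 1 (blank wells). Combination Emax is the second-highest inhibition in the matrix; Bliss excess is observed combination effect minus expected EA + EB − EA·EB, EA and EB being single-agent effects.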

[1] = system: NUGC-4 (Gastric Carcinoma)
Method in brief: as §1

NCI-H2722 (Mesothelioma) = system: NCI-H2722 (Mesothelioma)
Method in brief: as §1

[2] = system: HH (T-Cell Non-Hodgkin's Lymphoma)
Method in brief: as §1

[3] = system: WSU-NHL (B-Cell Non-Hodgkin's Lymphoma)
Method in brief: as §1

MPP-89 (Mesothelioma) = system: MPP-89 (Mesothelioma)
Method in brief: as §1

[4] = system: SW1573 (Lung Adenocarcinoma)
Method in brief: as §1

[5] = system: YAPC (Pancreatic Carcinoma)
Method in brief: as §1

[6] = system: FTC-133 (Thyroid Gland Carcinoma)
Method in brief: as §1

[7] = system: Detroit562 (Head and Neck Carcinoma)
Method in brief: as §1

A673 (Ewing's Sarcoma) = system: A673 (Ewing's Sarcoma)
Method in brief: as §1

[8] = system: SW1710 (Bladder Carcinoma)
Method in brief: as §1

BPH-1 (Non-Cancerous) = system: BPH-1 (Non-Cancerous)
Method in brief: as §1

GAMG (Glioblastoma) = system: GAMG (Glioblastoma)
Method in brief: as §1

[9] = system: ALL-PO (B-Lymphoblastic Leukemia)
Method in brief: as §1

[10] = system: TGBC1TKB (Biliary Tract Carcinoma)
Method in brief: as §1

NCI-H2052 (Mesothelioma) = system: NCI-H2052 (Mesothelioma)
Method in brief: as §1

[11] = system: SNU-16 (Gastric Carcinoma)
Method in brief: as §1

[12] = system: Hs-746T (Gastric Carcinoma)
Method in brief: as §1

[13] = system: SNU-449 (Hepatocellular Carcinoma)
Method in brief: as §1

Structure (SMILES): CN(C)CCCOc1ccc(-c2ccc3ncc4c(c3c2)n(C2CCOCC2)c(=O)n4C)cn1 [AZD0156] + C[C@@H]1COCCN1C2=NC(=NC(=C2)C3(CC3)[S@](=N)(=O)C)C4=C5C=CNC5=NC=C4 [AZD6738] (first compound max 1 µM, 7x7, partner max 10 µM)
- Bliss excess (EW-11 (Ewing's Sarcoma)): -0.112
- Bliss excess [1]: 0.0101
- Bliss excess (NCI-H2722 (Mesothelioma)): -0.0384
- Bliss excess [2]: 0.0175
- Bliss excess [3]: -0.0252
- Bliss excess (MPP-89 (Mesothelioma)): 0.0041
- Bliss excess [4]: -0.0315
- Bliss excess [5]: -0.0354
- Bliss excess [6]: -0.0043
- Bliss excess [7]: 0.0477
- Bliss excess (A673 (Ewing's Sarcoma)): 0.0153
- Bliss excess [8]: -0.0134
- Bliss excess (BPH-1 (Non-Cancerous)): -0.0092
- Bliss excess (GAMG (Glioblastoma)): -0.0485
- Bliss excess [9]: 0.0402
- Bliss excess [10]: -0.0227
- Bliss excess (NCI-H2052 (Mesothelioma)): -0.0317
- Bliss excess [11]: 0.0529
- Bliss excess [12]: -0.0211
- Bliss excess [13]: -0.0662

Structure (SMILES): Cn1cnc2c(F)c(Nc3ccc(Br)cc3Cl)c(C(=O)NOCCO)cc21 [Selumetinib] + C[C@@H]1COCCN1C2=NC(=NC(=C2)C3(CC3)[S@](=N)(=O)C)C4=C5C=CNC5=NC=C4 [AZD6738] (first compound max 10 µM, 7x7, partner max 10 µM)
- Bliss excess (EW-11 (Ewing's Sarcoma)): -0.0605
- Bliss excess [1]: 0.0069
- Bliss excess (NCI-H2722 (Mesothelioma)): -0.0455
- Bliss excess [2]: -0.038
- Bliss excess [3]: -0.0042
- Bliss excess (MPP-89 (Mesothelioma)): -0.0424
- Bliss excess [4]: -0.0587
- Bliss excess [5]: -0.0019
- Bliss excess [6]: -0.0828
- Bliss excess [7]: -0.0438
- Bliss excess (A673 (Ewing's Sarcoma)): -0.0537
- Bliss excess [8]: -0.0481
- Bliss excess (BPH-1 (Non-Cancerous)): 0.108
- Bliss excess (GAMG (Glioblastoma)): -0.0398
- Bliss excess [9]: 0.0391
- Bliss excess [10]: -0.0031
- Bliss excess (NCI-H2052 (Mesothelioma)): 0.0119
- Bliss excess [11]: 0.0038
- Bliss excess [12]: 0.0382
- Bliss excess [13]: -0.0403

Structure (SMILES): CC1(C)CCC(CN2CCN(c3ccc(C(=O)NS(=O)(=O)c4ccc(NCC5CCOCC5)c([N+](=O)[O-])c4)c(Oc4cnc5[nH]ccc5c4)c3)CC2)=C(c2ccc(Cl)cc2)C1 [Venetoclax] + Cn1cnc2c(F)c(Nc3ccc(Br)cc3Cl)c(C(=O)NOCCO)cc21 [Selumetinib] (first compound max 1 µM, 7x7, partner max 3 µM)
- Bliss excess (EW-11 (Ewing's Sarcoma)): -0.0583
- Bliss excess [1]: -0.0467
- Bliss excess (NCI-H2722 (Mesothelioma)): -0.0741
- Bliss excess [2]: -0.0387
- Bliss excess [3]: -0.131
- Bliss excess (MPP-89 (Mesothelioma)): -0.0235
- Bliss excess [4]: -0.0621
- Bliss excess [5]: -0.0474
- Bliss excess [6]: -0.0232
- Bliss excess [7]: -0.0516
- Bliss excess (A673 (Ewing's Sarcoma)): 0.0048
- Bliss excess [8]: -0.0134
- Bliss excess (BPH-1 (Non-Cancerous)): 0.0055
- Bliss excess (GAMG (Glioblastoma)): -0.0576
- Bliss excess [9]: 0.0801
- Bliss excess [10]: -0.0542
- Bliss excess (NCI-H2052 (Mesothelioma)): -0.0126
- Bliss excess [11]: -0.0052
- Bliss excess [12]: -0.0192
- Bliss excess [13]: -0.0609

Structure (SMILES): NC1(C(=O)N[C@@H](CCO)c2ccc(Cl)cc2)CCN(c2ncnc3[nH]ccc23)CC1 [Capivasertib] + CCN(CCO)CCCOc1ccc2c(Nc3cc(CC(=O)Nc4cccc(F)c4)[nH]n3)ncnc2c1 [AZD2811] (first compound max 10 µM, 7x7, partner max 1 µM)
- Bliss excess (EW-11 (Ewing's Sarcoma)): 0.0737
- Bliss excess [1]: -0.0543
- Bliss excess (NCI-H2722 (Mesothelioma)): -0.0044
- Bliss excess [2]: -0.0221
- Bliss excess [3]: -0.0697
- Bliss excess (MPP-89 (Mesothelioma)): -0.0481
- Bliss excess [4]: -0.0197
- Bliss excess [5]: 0.0161
- Bliss excess [6]: 0.0005
- Bliss excess [7]: -0.0114
- Bliss excess (A673 (Ewing's Sarcoma)): -0.0158
- Bliss excess [8]: -0.0507
- Bliss excess (BPH-1 (Non-Cancerous)): 0.0118
- Bliss excess (GAMG (Glioblastoma)): -0.0737
- Bliss excess [9]: -0.0254
- Bliss excess [10]: -0.0275
- Bliss excess (NCI-H2052 (Mesothelioma)): 0.0076
- Bliss excess [11]: 0.0416
- Bliss excess [12]: -0.0265
- Bliss excess [13]: -0.0166

Structure (SMILES): COc1nnc2ccc(N3CCC(c4ccc(OCCN5CCN(C)C(=O)[C@H]5C)cc4)CC3)nn12 [AZD5153] + Cn1cnc2c(F)c(Nc3ccc(Br)cc3Cl)c(C(=O)NOCCO)cc21 [Selumetinib] (first compound max 1 µM, 7x7, partner max 10 µM)
- Bliss excess (EW-11 (Ewing's Sarcoma)): -0.0633
- Bliss excess [1]: 0.0186
- Bliss excess (NCI-H2722 (Mesothelioma)): -0.0597
- Bliss excess [2]: -0.0817
- Bliss excess [3]: 0.0023
- Bliss excess (MPP-89 (Mesothelioma)): 0.0192
- Bliss excess [4]: -0.0062
- Bliss excess [5]: 0.0121
- Bliss excess [6]: -0.0539
- Bliss excess [7]: -0.0316
- Bliss excess (A673 (Ewing's Sarcoma)): 0.111
- Bliss excess [8]: -0.0433
- Bliss excess (BPH-1 (Non-Cancerous)): -0.0385
- Bliss excess (GAMG (Glioblastoma)): -0.0192
- Bliss excess [9]: -0.0054
- Bliss excess [10]: 0.0517
- Bliss excess (NCI-H2052 (Mesothelioma)): 0.0301
- Bliss excess [11]: -0.0058
- Bliss excess [12]: -0.0227
- Bliss excess [13]: -0.014

Structure (SMILES): Cc1c2c(nn1C)CSCc1cc(n(C)n1)CSc1cc(c3ccccc3c1)OCCCc1c(C(=O)O)n(C)c3c-2c(Cl)ccc13 [AZD5991] + Cn1cnc2c(F)c(Nc3ccc(Br)cc3Cl)c(C(=O)NOCCO)cc21 [Selumetinib] (first compound max 1 µM, 7x7, partner max 3 µM)
- Bliss excess (EW-11 (Ewing's Sarcoma)): -0.0106
- Bliss excess [1]: 0.0356
- Bliss excess (NCI-H2722 (Mesothelioma)): 0.0081
- Bliss excess [2]: -0.0664
- Bliss excess [3]: -0.0489
- Bliss excess (MPP-89 (Mesothelioma)): -0.0188
- Bliss excess [4]: -0.0427
- Bliss excess [5]: -0.003
- Bliss excess [6]: 0.0108
- Bliss excess [7]: 0.0295
- Bliss excess (A673 (Ewing's Sarcoma)): 0.12
- Bliss excess [8]: -0.0214
- Bliss excess (BPH-1 (Non-Cancerous)): 0.0216
- Bliss excess (GAMG (Glioblastoma)): 0.0368
- Bliss excess [9]: 0.0056
- Bliss excess [10]: -0.0181
- Bliss excess (NCI-H2052 (Mesothelioma)): 0.0301
- Bliss excess [11]: 0.0143
- Bliss excess [12]: -0.018
- Bliss excess [13]: -0.0846

Structure (SMILES): CN(CCO)CC[C@H](CSc1ccccc1)Nc1ccc(S(=O)(=O)NC(=O)c2ccc(N3CCC([C@@H](O)c4ccccc4-c4ccc(Cl)cc4)CC3)cc2)cc1S(=O)(=O)C(F)(F)F [AZD4320] + Cn1cnc2c(F)c(Nc3ccc(Br)cc3Cl)c(C(=O)NOCCO)cc21 [Selumetinib] (first compound max 1 µM, 7x7, partner max 3 µM)
- Bliss excess (EW-11 (Ewing's Sarcoma)): -0.0786
- Bliss excess [1]: 0.0784
- Bliss excess (NCI-H2722 (Mesothelioma)): -0.011
- Bliss excess [2]: -0.0255
- Bliss excess [3]: -0.0491
- Bliss excess (MPP-89 (Mesothelioma)): -0.0056
- Bliss excess [4]: 0.0119
- Bliss excess [5]: 0.0082
- Bliss excess [6]: -0.0023
- Bliss excess [7]: 0.072
- Bliss excess (A673 (Ewing's Sarcoma)): 0.0944
- Bliss excess [8]: 0.0287
- Bliss excess (BPH-1 (Non-Cancerous)): 0.0021
- Bliss excess (GAMG (Glioblastoma)): 0.0039
- Bliss excess [9]: 0.0571
- Bliss excess [10]: -0.012
- Bliss excess (NCI-H2052 (Mesothelioma)): 0.0283
- Bliss excess [11]: -0.0054
- Bliss excess [12]: 0.0402
- Bliss excess [13]: -0.0537
